Source: patent US20170137458A1, “OXYSTEROLS FOR USE IN THE TREATMENT AND PREVENTION OF DISEASES CAUSED BY VIRUSES” (priority 2014, published 2017)
Like-named read-outs stand apart in the source and are kept apart here.

Key:
human rotavirus Wa [1] = assay: Infectivity assay for rotavirus repeated on Caco2 cells, strain Wa; format: cell-based; details: Caco-2
From the text: The results of the antiviral assays performed treating with 25OHC and 27OHC were confirmed repeating the infectivity assays on Caco2 cells.

PsV of HPV-16 = assay: microbe, parasite or virus in culture; format: cell-based, human papillomavirus
TLR3 = assay: Quantitative real time RT-PCR of TLR-3 in Caco2 cells; format: cell-based, human; details: CaCo2 intestinal cells, 1.9 μM, 30 minutes to 6 hours
Experimental: The Caco2 cells were cultivated in DMEM medium containing 10% serum and seeded in 25 cm^2 flasks (8 million confluence cells). The next day the cells were treated, in DMEM medium containing 2% serum, with 1.9 μM 25OHC or 27OHC (dissolved in ethanol) for 30 minutes, 1, 2, 3, 4, 5 or 6 hours. Extraction of the total RNA was performed using the TRIzol Reagent (Applied Biosystems, Monza, Italy) and the quantity and purity (A260/A280 ratio) of the extracted RNA were spectrophotometrically measured. Subsequently, 2 μg of RNA were retrotranscribed using the High-Capacity cDNA Reverse Transcription Kit (Applied Biosystems). Quantitative RT-PCR was performed with 30 ng of cDNA using the “TaqMan Gene Expression Assay kits” for TLR-3 and β-actin, TaqMan Fast Universal PCR Master Mix, and 7500 Fast Real-Time PCR System (Applied Biosystems). For each gene considered, the threshold cycle (Ct) was determined and the results were normalized using β-actin as a reference gene. The relative quantification was performed using a mathematical method previously published (29). In FIGS. 1a-1b, the results are reported as increment of the genic expression (Fold change, Fc) of the treated samples with respect to the controls.

rotavirus = assay: Rotavirus cell entry kinetics; format: cell-based; details: MA104 cells
Experimental: To measure the entry speed of the rotavirus into the cells, confluent monolayers of MA104 cells (cultivated in plates with 96 wells) were treated with 25OHC, 27OHC or 7κC at 1.9 μM at 37° C.; after 20 hours, the cells were washed extensively with cold medium and left to cool on ice. […] The non-bound viruses were then eliminated by washing, medium was added at 37° C., and the plates were incubated at 37° C. in a humidified atmosphere. At fixed times (i.e. 0, 15, 30, 45, 60, 75 and 90 minutes after the virus-cell adhesion), the medium was extracted from the wells and the viral particles still present on the surface of the cells were eliminated by means of two rapid washing operations with EGTA 3 mM in PBS, followed by incubation in warm medium. After reaching the last time point (90 minutes from the virus-cell adhesion), the plates with 96 wells were placed in an incubator (37° C., 5% CO2), and the infection was left to proceed for a further 16 hours. The cells were then fixed and coloured as described above. The quantity of viral particles that entered the cells at each time point was compared with the quantity of virus that entered when no washing with EGTA was performed (100% entry). The ANOVA, followed by the Bonferroni test, was used to evaluate the statistical significance of the differences between the treated and non-treated samples. The significance was fixed at the level of 95%.
As a control experiment, the same treatment and infection protocol was performed on MA104 cells, cultivated in a plate with 6 wells. In this experiment, after reaching the last time point of the entry measurement (90 minutes), the cells were lysed, the proteins extracted were denatured by boiling for 5 minutes, then separated by electrophoresis on sodium dodecylsulfate gel with 12% polyacrylamide (SDS-12%PAGE) and transferred to a polyvinylidene difluoride (PVDF) membrane. The protein of the intermediate capsid VP6 was detected using the murine monoclonal antibody 2B4 (mab0036-P, CovalAb) at a dilution 1:750, followed by secondary antibody IgG-HRP (Santa Cruz Biotechnology Inc.). The actin was detected using the anti-actin murine monoclonal antibody MAB1501R (Millipore), followed by antibody IgG-HRP (Santa Cruz Biotechnology Inc.). The density of the bands was compared using the ImageJ software, and the intensity of the actin bands was used to normalize the values. The ANOVA, followed by the Bonferroni test, was used to evaluate the statistical significance of the differences between the treated and the non-treated samples. The significance was fixed at the level of 95%. The results are reported in FIG. 11 and are expressed as a percentage, comparing treated cells with cells incubated with culture medium.

HPV PsV (protein L1) = assay: Assay for adhesion of the papillomavirus to the cell surface: Western blot analysis; format: cell-based, human papillomavirus; details: Hela cells treated 16 hours, PsV 4 hours at 4° C.
From the text: L1 was detected using the murine monoclonal antibody (Ab30908, Abcam, Cambridge, UK) at a dilution of 1:2000, followed by secondary antibody IgG-HRP (Santa Cruz Biotechnology Inc.). The actin was detected using an anti-actin murine monoclonal antibody (MAB1501R, Millipore), followed by secondary antibody IgG-HRP (Santa Cruz Biotechnology Inc.).

LXR = details: cited from earlier work
adenovirus 5 = details: for example the adenovirus 5; cited from earlier work
human rotavirus Wa [2] = assay: Infectivity assay for rotavirus, MA104 cells, strain Wa
Experimental: (§1) The strains of human rotavirus Wa (ATCC® VR-2018), WI61 (ATCC® VR-2551), HRV 408 (ATCC® VR-2273), HRV 248 (ATCC® VR-2274) and DS-1 (ATCC® VR-2550) were acquired from the American Tissue Culture Collection (ATCC); the viruses were activated with 5 μg/ml porcine pancreatic trypsin of type IX (Sigma, St. Louis, Mo.) for 30 minutes at 37° C. and propagated in MA104 cells using MEM containing 0.5 μg of trypsin per ml as described previously (27).
(§2) The antiviral effectiveness of the oxysterols of the invention was determined by means of infectivity inhibition assay. The assays were performed with confluent monolayers of MA104 cells seeded in plates with 96 wells, as described previously (28). […] The control samples were prepared by treating the cells with culture medium with the addition of equal volumes of ethanol. The cells were then washed with medium, and the rotavirus infection was performed at a multiplicity of infection (MOI) of 0.02. After the infection, the cells were washed with medium and incubated at 37° C. in an incubator humidified at 5% (vol/vol) CO2-95% (vol/vol) of air. After 16 hours, the infected cells were fixed with a cold acetone-methanol mixture (50:50), and the virus titres were determined by means of indirect immunocytochemistry. The inhibition of the virus infectivity was expressed as a percentage comparing the mean number of infective events in the treated and non-treated samples±the standard deviations. Where possible, the values of the oxysterol concentrations able to determine 50% or 90% of the antiviral effect (EC50 and EC90 respectively) were calculated by means of regression analysis using the dose-response curves generated by the experimental data, with the use of PRISM 5.00 (GraphPad Software, San Diego, Calif., USA).

human rotavirus DS-1 = assay: Infectivity assay for rotavirus, MA104 cells, strain DS-1
Experimental: as §1, §2

human rotavirus HRV 248 = assay: Infectivity assay for rotavirus, MA104 cells, strain HRV 248
Experimental: as §1, §2

human rotavirus HRV 408 = assay: Infectivity assay for rotavirus, MA104 cells, strain HRV 408
Experimental: as §1, §2

human rhinovirus 1A = assay: Infectivity assay with rhinovirus (plaque count, HeLa cells)
Experimental: The human rhinovirus 1A (ATCC® VR-1559) was acquired from ATCC. The virus was propagated in HeLa cells, at 33° C. with 5% of CO2. When the cytopathic effect (CPE) had fully developed, cells and supernatants were collected, frozen and thawed three times, clarified and divided into aliquots. The viruses were kept at −70° C. The rhinovirus titres were determined by means of the standard plaque assay. In short, the HeLa cells were seeded 2 days prior to the infection in plates with 96 wells, reaching 60%-70% confluence at the time of the infection. The viral suspension was serially diluted in DMEM supplemented with 2% fetal bovine serum and inoculated; the infected wells were incubated at 33° C. for 1 hour, allowing the viruses to adhere and enter the cells. The cells were subsequently washed with medium and covered with a 1:1 mixture of 1.6% SeaPlaque agarose (BioWhittaker Molecular Applications) and DMEM 2X [26.76 g DMEM (Gibco BRL), 20 ml of L-glutamine (Gibco BRL), 4.4 g of sodium bicarbonate (Sigma, St. Louis, Mo.), FBS 40 ml (Sigma, St. Louis, Mo.) and 1000 ml of water]. The plates were incubated at 33° C. for 3 days. At the end of the incubation, the plates were fixed with 7.5% formaldehyde (Fluka) and coloured with crystal violet (Sigma, St. Louis, Mo.). The number of plaques formed was then counted; the virus titres were expressed in terms of plaque-forming units per ml (PFU/ml).
The HeLa cells, kept in DMEM supplemented with 10% FBS and 1% Zell Shield, were seeded (at 8×10^4 cells/well) in plates with 24 wells. The medium was removed and the cells were infected with 200 microlitres/well containing approximately 30 PFU of a stock of human rhinovirus 1A. The infected cells were incubated at 33° C. for 1 h, allowing the virus to adhere and enter the cells. […] The plates were incubated at 33° C. for 5 days. After the incubation, the plates were fixed with formaldehyde at 7.5% (Fluka), coloured with crystal violet (Sigma, St. Louis, Mo.) and the number of plaques formed was counted. The oxysterol concentration values able to determine 50% or 90% of the antiviral effect (EC50 and EC90 respectively) were calculated by means of regression analysis using the dose-response curves generated by the experimental data, using PRISM 5.00 (GraphPad Software, San Diego, Calif., USA).

[3] = pre-treatment assay, 20 hours prior to the infection

C[C@H](CCCC(C)(C)O)[C@H]1CC[C@H]2[C@@H]3CC=C4C[C@@H](O)CC[C@]4(C)[C@H]3CC[C@]12C [25OHC, 25-hydroxycholesterol]
EC50 (human rotavirus Wa [1]): 190 nM | EC90 (human rotavirus Wa [1]): 1260 nM | EC50 (PsV of HPV-16; C33A cells, treated 16 hours before PsV, read-out: EC50): 2060 nM | EC50 (PsV of HPV-16; Human papillomavirus, HeLa): 2190 nM | EC50 (PsV of HPV-16; Human papillomavirus, SiHa): 14800 nM | TLR3 expression (TLR3): marked hyperexpression of TLR3 | entry of the rotavirus into the cells (infective events) (rotavirus; 1.9 μM for 20 hours, MOI 0.02): totally inhibit the ability of the rotavirus to penetrate into the host cells | viral antigen VP6 within the cells (Western blot) (rotavirus; 90 minutes after virus-cell adhesion): significantly (p<0.05) lower quantity than the non-treated control | adhesion of the PsV to the cell surface (L1 Western blot) (HPV PsV (protein L1)): not able to inhibit adhesion of the PsV to the cell surface | LXR ligand activity (LXR): optimal ligands of LXR | effectiveness on naked viruses (adenovirus 5): not effective on naked viruses | EC50 (human rotavirus Wa [2]): 160 nM | EC90 (human rotavirus Wa [2]): 1370 nM | EC50 (human rotavirus DS-1): 270 nM | EC90 (human rotavirus DS-1): 5770 nM | EC50 (human rotavirus HRV 248): 110 nM | EC90 (human rotavirus HRV 248): 1260 nM | EC50 (human rotavirus HRV 408): 120 nM | EC90 (human rotavirus HRV 408): 420 nM | EC50 (human rhinovirus 1A; post-infection treatment assay): 160 nM | EC90 (human rhinovirus 1A; post-infection treatment assay): 410 nM | EC50 (human rhinovirus 1A; [3]): 290 nM | EC90 (human rhinovirus 1A; [3]): 540 nM
